Reference: EPA's ToxValDB 9.5 (doi:10.2903/j.efsa.2011.2334)
In brackets after ≈: the same amount, converted by molar mass.

Tests used:
Canidae = settings: oral, gavage, Dog Other
Aleochara bilineata = settings: chronic/long-term; duration: 28 days; reproduction
Anas platyrhynchos = settings: short-term; oral; feed; mortality
Lepomis macrochirus = settings: acute; duration: 96 hours; mortality
Colinus virginianus = settings: acute; oral; mortality
Oncorhynchus mykiss = settings: acute; duration: 96 hours; mortality

Molecule `CNC(=S)[S-].[Na+]` [Metam-sodium] has an NOAEL (Rattus norvegicus; developmental, F, development) of 10 mg/kg-day, an NOAEL (Canidae; chronic, duration: 1 years, M/F, hematological) of 0.1 mg/kg-day and an LEL (Aleochara bilineata) of 608000 g/ha. It also gave an LC50 (Anas platyrhynchos) greater than 324 mg/kg-day, an LC50 (Lepomis macrochirus) greater than 0.175 µg/mL and an LD50 (Colinus virginianus) of 211 mg/kg-day.

`CN=C=S` [Methyl isothiocyanate] showed an LD50 (Rattus norvegicus; acute, mortality) of 147 mg/kg-day, an NOAEL (Rattus norvegicus; chronic, duration: 2 years, oral, drinking water, hematological) of 0.44 mg/kg-day and an NOAEL (Rattus norvegicus; repeat dose other, oral, gavage, body weight) of 3 mg/kg-day. The NOAEL (Canidae; subchronic, duration: 90 days, body weight) was 0.4 mg/kg-day, the LC50 (Oncorhynchus mykiss) was 0.0531 µg/mL (≈ 0.726 µM) and the LC50 (Anas platyrhynchos) was greater than 183 mg/kg-day. For the same molecule, the LD50 (Colinus virginianus) was 119 mg/kg-day.
